Activity calls are given as the source filed them. The calls are words filed in the database; no cut-off is given here.
How the values were obtained:
Rodentolepis nana [1] = assay: Anthelmintic activity against Hymenolepis nana infected in mouse assessed as reduction in worm burden at 25 mg/kg administered bid for 3 days relative to control; type: functional; parameters: scale not given: the % may be the effect or the level left
Rodentolepis nana [2] = assay: Anthelmintic activity against Hymenolepis nana infected in mouse assessed as reduction in worm burden at 100 mg/kg administered bid for 3 days relative to control; type: functional; parameters: scale not given: the % may be the effect or the level left
Rodentolepis nana [3] = assay: Anthelmintic activity against Hymenolepis nana infected in mouse assessed as reduction in worm burden at 10 mg/kg administered bid for 3 days relative to control; type: functional, organism-based; parameters: dose 10 mg/kg
Rodentolepis nana [4] = assay: Anthelmintic activity against Hymenolepis nana infected in mouse assessed as reduction in worm burden at 50 mg/kg administered bid for 3 days relative to control; type: functional; parameters: scale not given: the % may be the effect or the level left

`CCCCCCOc1ccc(C(=N)N(CCCC)CCCC)c2ccccc12` [BUNAMIDINE] was tested, and the Activity (Rodentolepis nana [1]) was 30%, the Activity (Rodentolepis nana [2]) was 100% and the Activity (Rodentolepis nana [3]) was “inactive”. For the same compound, the Activity (Rodentolepis nana [4]) was 59%.
In the case of `COc1cc(Nc2cc(C)nc3ccc4nc[nH]c4c23)c(OC)cc1Cl`, the Activity (Rodentolepis nana [1]) is reported as 100%, the Activity (Rodentolepis nana [2]) is reported as 100% and the Activity (Rodentolepis nana [3]) is reported as “inactive”. The Activity (Rodentolepis nana [4]) was 72%.
With `CC(=O)c1ccc(Nc2cc(C)nc3ccc4nc[nH]c4c23)cc1` the Activity (Rodentolepis nana [1]) was 56%, the Activity (Rodentolepis nana [2]) was 100% and the Activity (Rodentolepis nana [3]) was “inactive”. For the same compound, the Activity (Rodentolepis nana [4]) was 100%.
In the case of `Cc1cc(Nc2ccc(OCC(C)C)c(OCC(C)C)c2)c2c(ccc3nc[nH]c32)n1`, the Activity (Rodentolepis nana [1]) is reported as 77%, the Activity (Rodentolepis nana [2]) is reported as 100% and the Activity (Rodentolepis nana [3]) is reported as “inactive”. For the same compound, the Activity (Rodentolepis nana [4]) was 78%.
In the case of `CCCC(C)Oc1ccc(Nc2cc(C)nc3ccc4nc[nH]c4c23)cc1OC(C)CCC` (configuration not stated), the Activity (Rodentolepis nana [1]) is reported as 92%, the Activity (Rodentolepis nana [2]) is reported as 100% and the Activity (Rodentolepis nana [3]) is reported as “inactive”. It also gave an Activity (Rodentolepis nana [4]) of 100%.
For `Cc1cc(Nc2ccc(N3CCN(Cc4ccccc4)CC3)c(Cl)c2)c2c(ccc3nc[nH]c32)n1`, the Activity (Rodentolepis nana [1]) was 77%, the Activity (Rodentolepis nana [2]) was 100% and the Activity (Rodentolepis nana [3]) was “inactive”. For the same compound, the Activity (Rodentolepis nana [4]) was 100%.
For `Cc1cc(Nc2ccc(OCCC(C)C)c(OCCC(C)C)c2)c2c(ccc3nc[nH]c32)n1`, the Activity (Rodentolepis nana [1]) was 67%, the Activity (Rodentolepis nana [2]) was 100% and the Activity (Rodentolepis nana [3]) was “inactive”. It also gave an Activity (Rodentolepis nana [4]) of 100%.
With `CCCCOc1cc(Nc2cc(C)nc3ccc4nc[nH]c4c23)c(OCCCC)cc1Cl` the Activity (Rodentolepis nana [1]) was 74%, the Activity (Rodentolepis nana [2]) was 100% and the Activity (Rodentolepis nana [3]) was “inactive”. The Activity (Rodentolepis nana [4]) was 84%.
